Data reported in publication PMC10493664, “The neurotrophic activities of brain‐derived neurotrophic factor are potentiated by binding with apigenin, a common flavone in vegetables, in stimulating the receptor signaling” (CNS Neuroscience & Therapeutics, 2023).

Molecular target: T1, BDNF (Homo sapiens, UniProt P23560)
T1 construct: purchased human BDNF (Alomone Labs); noncovalent dimer; PDB 1B8M used only as docking model
T1 sequence (P23560 129-247): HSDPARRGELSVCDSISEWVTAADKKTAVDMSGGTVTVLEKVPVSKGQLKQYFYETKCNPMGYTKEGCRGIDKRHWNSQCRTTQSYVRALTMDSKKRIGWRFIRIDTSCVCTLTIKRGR
Assay: surface plasmon resonance (Biacore T100, BDNF on CM5 chip, steady-state affinity fit)
Type: binding

Which Kd does the source give for `O=c1cc(-c2ccc(O)cc2)oc2cc(O)cc(O)c12` [apigenin] here?
The Kd was ~14.2 µM.
